The target of assay [1] is T1, hCB2 (Homo sapiens, UniProt P34972).
T1 construct: expressed in transfected cells; host or cells: HEK Flp-in
The experiment in a line: Radioligand competition binding with [3H]-CP 55,940 on hCB2-expressing HEK membranes. The settings on record: for inhibition at 10 µM: 1 h, read-out: CB2 binding extent at 10 μM (%) (±SEM). In general terms: Loss of bound radioactivity is the signal in a displacement assay; it reports binding, not function.

In assay [2] the target is T1, hCB2. The assay can be described thus: Comparison of efficacy/potency and operational-model bias analysis between hCB2 pathways, reference CP 55,940. The settings on record: for Internalisation – pERK Bias factor / cAMP – internalisation Bias factor / cAMP – pERK Bias factor: 10^ΔΔlogR; for Internalisation – pERK Bias factor / cAMP – internalisation Bias factor / cAMP – pERK Bias factor / Between-pathway signalling bias (in words): relative to CP 55,940; for Internalisation – pERK ΔΔlogR (±SEM) / cAMP – internalisation ΔΔlogR (±SEM) / cAMP – pERK ΔΔlogR (±SEM): relative to reference ligand CP 55,940. The assay is classed as cell-based.

In another assay the target is T2, hCB1 (Homo sapiens, UniProt P21554).
T2 construct: expressed in transfected cells; host or cells: HEK (membranes)
The assay can be described thus: Radioligand competition binding screen with [3H]-CP 55,940 on hCB1-expressing HEK membranes. The settings on record: for CB2 selectivity over CB1 (in words): from CB1 binding at 10 μM versus CB2 affinity.

In assay [3] the target is T1, hCB2. The experiment in a line: pERK AlphaLISA assay, HEK Flp-in hCB2 cells. The settings on record: for logR [log(τ/KA)] (±SEM) pERK: operational model transduction ratio; for Emax: read-out: pERK (4 min) Emax (±SEM); for Time of maximal pERK response: time course experiment. The assay is classed as cell-based. On the technique in general: Bead proximity is the source of the signal in Alpha formats.

Assay [4] has as its target T1, hCB2. The experiment in a line: Real-time CAMYEL BRET cAMP assay, forskolin-stimulated HEK Flp-in hCB2 cells. The settings on record: for logR [log(τ/KA)] (±SEM) cAMP: operational model transduction ratio; for cAMP (5 min) Emax (±SEM): change relative to forskolin alone (100%), vehicle 0%, 10 and 14 approximate. The format is cell-based. Here is the method: Cellular cAMP levels were measured using a real-time BRET biosensor (CAMYEL) as previously described ([Cawston et al., 2013]). In brief, cells were seeded in 10 cm dishes one day prior to transfection. The medium was then replaced and cells transfected with 5 μg of pcDNA3L-His-CAMYEL (ATCC, Manassas, VA, United States) using linear PEI (MW 25 kDa; Polysciences, Warrington, PA, United States) with a DNA:PEI ratio of 1:6. Approximately 24 h after transfection, cells were trypsinised and re-plated in poly-D-lysine treated white 96-well plates (Corning), at a density of 5–6 × 10^4 cells per well. For experiments involving pertussis toxin (PTX; Sigma-Aldrich) pre-treatment, cells were seeded in half the usual volume of medium, and then ∼5 h later, 2× concentrated PTX or vehicle (50% glycerol, […] Tris–HCl pH 7.5, 10 mM glycine, 500 mM NaCl) were prepared in medium and added to the existing plating medium (giving rise to a final PTX concentration of 100 ng mL^-1). Approximately 24 h after plating (or 16–20 h after applying PTX/vehicle in experiments involving PTX treatment), cells were washed once with Hank’s Balanced Salt Solution (HBSS, Thermo Fisher Scientific, catalogue #14025-134), and then equilibrated for 30 min in HBSS supplemented with 1 mg mL^-1 BSA. Coelenterazine h (final concentration 5 μM; NanoLight Technologies, Pinetop, AZ, United States) was added to each well and incubated for 5 min. Forskolin was added (final concentration 5 μM) and incubated for 6 min (allowing enough time for the induced cAMP increase to plateau), prior to vehicle/drug addition. All drugs and reagents were prepared in HBSS supplemented with 1 mg mL^-1 BSA. SR 144528 was a generous gift from Roche (Basel, Switzerland).
Assays were carried out in technical duplicate. Emissions were detected at 460 nm (Rluc) and 535 nm (YFP) with either a LUMIstar® Omega luminometer (BMG Labtech, Ortenberg, Germany) or CLARIOstar® (BMG Labtech). BRET ratios (535 nm emissions/460 nm emissions, where an increase in ratio corresponds to a decrease in cAMP) were normalised to pre-forskolin reads (i.e., with coelenterazine h present) to remove any variability present prior to addition of forskolin and drug/vehicle. A Lowess curve (GraphPad Prism) was fitted to individual technical replicates within an assay so that cAMP signalling data could be extrapolated from any time point as opposed to only those that were empirically measured (typically every 30–60 s). Data were normalised to matched vehicle (0%) and forskolin (100%) treatments, allowing compilation of data from independent experiments.

Another assay deals with CB2. Also noted: method as in Yrjölä et al., 2015. The settings on record: ref Yrjölä et al., 2015; cited from earlier work.
Assay [5] addresses T1, hCB2. The experiment in a line: hCB2 internalisation assay (immunocytochemistry of surface receptor), HEK Flp-in hCB2 cells. The assay is classed as cell-based. Also noted: Emax: dose or concentration left out as unconfirmed. The settings on record: for logR [log(τ/KA)] (±SEM) Internalisation: operational model transduction ratio.
Another assay concerns HEK Flp-in wt cells. The assay can be described thus: CAMYEL cAMP assay in HEK Flp-in wt cells (non-hCB2-mediated effects). The format is cell-based, human. A general note: Changes in cAMP serve as a functional read-out for many G protein-coupled receptors.
The mark [6] stands for this setting: 10 μM compound, displacement of 0.5 nM [3H]-CP 55,940.
Setting [7] is: heterologous competition vs [3H]-CP 55,940, read-out: CB2 pKi (±SEM) (converted).
The mark [8] stands for this setting: 4 min stimulation, 14 approximate (low potency), read-out: pERK (4 min) pEC50 (±SEM) (converted).
Setting [9] is: 5 min post-drug, 5 μM forskolin, 10 and 14 approximate (non-hCB2-mediated effects), read-out: cAMP (5 min) pEC50 (±SEM) (converted).
Where [10] appears, read: 5 min post-drug, 5 μM forskolin.

Where two headings read alike, the source gives them in different places. Marks after values point to notes of the source that are not given here.

T1 sequence (P34972 whole entry): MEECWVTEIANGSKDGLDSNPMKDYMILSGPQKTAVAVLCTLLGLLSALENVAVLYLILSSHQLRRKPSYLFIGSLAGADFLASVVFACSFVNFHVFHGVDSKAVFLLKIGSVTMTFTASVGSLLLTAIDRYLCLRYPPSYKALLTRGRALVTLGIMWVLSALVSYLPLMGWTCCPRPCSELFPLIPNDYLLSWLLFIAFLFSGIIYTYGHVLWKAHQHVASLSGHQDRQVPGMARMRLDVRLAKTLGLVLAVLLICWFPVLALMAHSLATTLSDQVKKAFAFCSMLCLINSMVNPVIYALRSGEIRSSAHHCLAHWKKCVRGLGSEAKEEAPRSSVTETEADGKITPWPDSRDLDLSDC
T2 sequence (P21554 whole entry): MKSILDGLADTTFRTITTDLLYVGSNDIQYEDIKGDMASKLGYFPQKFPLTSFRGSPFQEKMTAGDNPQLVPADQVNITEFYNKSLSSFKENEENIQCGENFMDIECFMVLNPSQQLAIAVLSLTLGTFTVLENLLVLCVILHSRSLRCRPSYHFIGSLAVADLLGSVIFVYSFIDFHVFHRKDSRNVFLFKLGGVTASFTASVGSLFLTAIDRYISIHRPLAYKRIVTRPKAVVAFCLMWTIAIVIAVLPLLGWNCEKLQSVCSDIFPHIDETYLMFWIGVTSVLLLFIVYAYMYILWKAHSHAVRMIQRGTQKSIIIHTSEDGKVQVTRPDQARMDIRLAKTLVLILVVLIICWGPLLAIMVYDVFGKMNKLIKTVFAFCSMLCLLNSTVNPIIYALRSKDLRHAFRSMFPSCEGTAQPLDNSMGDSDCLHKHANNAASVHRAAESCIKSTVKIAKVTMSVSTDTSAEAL

With `CCOc1nc(NC23CC4CC(CC(C4)C2)C3)nc(N2CCN(C)CC2)n1` [Compound 15, N-(Adamantan-1-yl)-4-ethoxy-6-(4-methylpiperazin-1-yl)-1,3,5-triazin-2-amine], on hCB2 [1], the Ki is 4.27 nM and the inhibition at 10 µM was 92.9%. At hCB2 [2], the “Internalisation – pERK Bias factor” value came out at 5.7, the “cAMP – internalisation Bias factor” value was 0.3, the “cAMP – pERK Bias factor” value was found to be 1.6 and the “Between-pathway signalling bias (in words)” value is “biased towards internalisation”. Further, on hCB2 [2], the “Internalisation – pERK ΔΔlogR (±SEM)” value is given as 0.76 (0.15)*, the “cAMP – internalisation ΔΔlogR (±SEM)” value was “–0.56 (0.15)” and the “cAMP – pERK ΔΔlogR (±SEM)” value is recorded as 0.20 (0.13). The “CB2 selectivity over CB1 (in words)” value at hCB1 is “somewhat CB2-selective”. At hCB2 [3], the EC50 is 35.5 nM, the “logR [log(τ/KA)] (±SEM) pERK” value was 7.45 (0.10), the Emax turned out to be 9.96% and the “Time of maximal pERK response” value is given as 4 min. Moreover, the “Behaviour in pERK pathway (in words)” value at hCB2 [3] (4 min) is recorded as “equivalent efficacies to CP 55,940”. For the same molecule, on hCB2 [4], the EC50 was 7.94 nM and the “logR [log(τ/KA)] (±SEM) cAMP” value was 8.12 (0.09). Moreover, on hCB2 [4] (read-out: cAMP (5 min) Emax (±SEM)), the Emax was -39.6%. For the same molecule, in the assay on CB2, the “Functional GTPγS selectivity for CB2 versus CB1” value is 1000 to 10,000 fold and the “GTPγS functional behaviour (in words)” value is listed as “full agonist”. Also, at hCB2 [5], the EC50 was 1.23 nM and the “logR [log(τ/KA)] (±SEM) Internalisation” value is 8.92 (0.09). Besides, the Emax at hCB2 [5] (read-out: Internalisation (1 h) Emax (±SEM)) is -56.5%.

As for `CCOc1nc(NC23CC4CC(CC(C4)C2)C3)nc(N2CCN(CCF)CC2)n1` [Compound 16, N-(adamantan-1-yl)-4-et hoxy-6-(4-(2-fluoroethyl)piperazin-1-yl)-1,3,5-triazin-2-amine], the inhibition at 10 µM at hCB2 [1] (setting [6]) turned out to be 95.6%. For the same molecule, the Ki at hCB2 [1] (setting [7]) was 1.62 nM. Also, in the assay with HEK Flp-in wt cells (HEK Flp-in wt), the “Non-hCB2-mediated effects on cAMP (in words)” value is on record as “most pronounced effects”. Moreover, at hCB2 [2], the “Efficacy relative to maximal efficacy measured across all compounds, all three pathways” value is roughly 80%; the “Internalisation – pERK Bias factor” value stood at 2.2; the “cAMP – internalisation Bias factor” value is reported as 0.7; the “cAMP – pERK Bias factor” value came out at 1.6. On hCB2 [2], the “Between-pathway signalling bias (in words)” value is “did not demonstrate any indication of between-pathway bias”, the “Internalisation – pERK ΔΔlogR (±SEM)” value is 0.35 (0.13), the “cAMP – internalisation ΔΔlogR (±SEM)” value is “–0.14 (0.22)” and the “cAMP – pERK ΔΔlogR (±SEM)” value is listed as 0.21 (0.20). In addition, at hCB2 [2] (read-out: Efficacy relative to maximal efficacy measured across all compounds, all three pathways, internalisation, cAMP and pERK), the Emax was in the range of 75 to 80%. For the same molecule, at hCB1, the “CB2 selectivity over CB1 (in words)” value is recorded as “somewhat CB2-selective”. The EC50 at hCB2 [3] (setting [8]) was 12.3 nM. At hCB2 [3], the “logR [log(τ/KA)] (±SEM) pERK” value is 7.84 (0.07) and the “Time of maximal pERK response” value is 4 min. In addition, the EC50 on hCB2 [4] (setting [9]) was 2.82 nM. For the same molecule, the “cAMP (5 min) Emax (±SEM)” value on hCB2 [4] (setting [10]) was “–35.6 (2.2) %”. In addition, the “logR [log(τ/KA)] (±SEM) cAMP” value at hCB2 [4] is 8.52 (0.19). In the assay on CB2, the “Functional GTPγS selectivity for CB2 versus CB1” value is on record as 1000 to 10,000 fold and the “GTPγS activity, % of maximum measured activity” value was roughly 70%. On hCB2 [5] (1 h stimulation), the “Behaviour in internalisation pathway (in words)” value was “significantly less efficacious” and the EC50 is 1.2 nM. The “logR [log(τ/KA)] (±SEM) Internalisation” value at hCB2 [5] is listed as 8.90 (0.19).

As for `CCOc1nc(NC23CC4CC(CC(C4)C2)C3)nc(N2CCN(CCOCCOCCNC(=O)OC(C)(C)C)CC2)n1` [Compound 10, tert-Butyl N-(2-(2-(2-(4-(4-((Adamantan-1-yl)Amino)-6-Ethoxy-1,3,5-Triazin-2-yl)Piperazin-1-yl)Ethoxy) Ethoxy)Ethyl)Carbamate], the inhibition at 10 µM on hCB2 [1] (setting [6]) came out at 91.8%. In addition, at hCB2 [1] (compared to methylpiperazinyl-15), the “Reduction in hCB2 binding affinity compared to 15” value was 2–3 log units. For the same molecule, at hCB2 [1] (setting [7]), the Ki was 661 nM. In addition, the “Non-hCB2-mediated cAMP effects: fold less potent than cAMP inhibition in hCB2-expressing cells” value with HEK Flp-in wt cells (HEK Flp-in wt versus HEK Flp-in hCB2) is on record as roughly 23 fold. Further, on hCB2 [2], the “Internalisation – pERK Bias factor” value is listed as 2.0, the “cAMP – internalisation Bias factor” value worked out at 1.2, the “cAMP – pERK Bias factor” value was 2.4 and the “Between-pathway signalling bias (in words)” value is “did not demonstrate any indication of between-pathway bias”. Besides, on hCB2 [2], the “Internalisation – pERK ΔΔlogR (±SEM)” value is listed as 0.31 (0.13), the “cAMP – internalisation ΔΔlogR (±SEM)” value is on record as 0.07 (0.16) and the “cAMP – pERK ΔΔlogR (±SEM)” value is on record as 0.37 (0.10). Besides, the “CB1 binding extent at 10 μM (%) (±SEM)” value at hCB1 (10 μM compound, displacement of 0.75 nM [3H]-CP 55,940) is listed as 16.7 (7.8) %. The “CB2 selectivity over CB1 (in words)” value at hCB1 is reported as “likely also CB2-selective”. At hCB2 [3] (4 min), the “Behaviour in pERK pathway (in words)” value was “equivalent efficacies to CP 55,940”. Moreover, the Emax at hCB2 [3] (4 min, response above vehicle, normalised to U0126 (0%) and PMA (100%), for 14 efficacy at 10 μM) was determined as 10.2%. Besides, the EC50 at hCB2 [3] (setting [8]) is 1070 nM. In addition, at hCB2 [3], the “logR [log(τ/KA)] (±SEM) pERK” value is listed as 6.06 (0.02) and the “Time of maximal pERK response” value amounted to 4 min. In addition, the “Behaviour in cAMP pathway (in words)” value on hCB2 [4] (5 μM forskolin) is “partial agonists”. In addition, the EC50 on hCB2 [4] (setting [9]) is 105 nM. Further, on hCB2 [4] (setting [10]), the “cAMP (5 min) Emax (±SEM)” value is recorded as “–33.0 (0.9)^Δ %”. Besides, the “logR [log(τ/KA)] (±SEM) cAMP” value on hCB2 [4] is given as 6.90 (0.10). The molecule further showed an EC50 at hCB2 [5] (1 h stimulation) of 89.1 nM. The “logR [log(τ/KA)] (±SEM) Internalisation” value on hCB2 [5] was 7.09 (0.10).
